Results from the NIST ThermoML archive (doi:10.1016/j.jct.2012.06.023).
± gives the expanded uncertainty stated by the source.

Assay: xn = mol fraction of the nth substance listed
Settings: for surface tension liquid-gas: Wilhelmy plate; for viscosity: 101 kPa, Liquid, Concentric cylinders viscometry

CCCCCO [pentan-1-ol] + CN(C)C=O
Settings | surface tension liquid-gas, 298.15 K [mN/m] | surface tension liquid-gas, 303.15 K [mN/m] | surface tension liquid-gas, 308.15 K [mN/m] | surface tension liquid-gas, 313.15 K [mN/m] | viscosity, 298.15 K [mPa·s] | viscosity, 303.15 K [mPa·s] | viscosity, 308.15 K [mPa·s] | viscosity, 313.15 K [mPa·s]
x2 = 0 | 24.55 ± 0.06 | 23.6 ± 0.06 | 22.54 ± 0.06 | 21.94 ± 0.06 | 3.5 ± 0.018 | 3.051 ± 0.016 | 2.664 ± 0.015 | 2.335 ± 0.014
x2 = 0.0793 | 24.71 ± 0.06 | 23.72 ± 0.06 | 22.64 ± 0.05 | 22 ± 0.05 | 2.973 ± 0.016 | 2.585 ± 0.015 | 2.259 ± 0.013 | 1.98 ± 0.013
x2 = 0.2866 | 25.53 ± 0.05 | 24.43 ± 0.05 | 23.31 ± 0.05 | 22.57 ± 0.05 | 1.863 ± 0.012 | 1.608 ± 0.011 | 1.414 ± 0.011 | 1.24 ± 0.01
x2 = 0.4261 | 26.4 ± 0.05 | 25.25 ± 0.05 | 24.11 ± 0.05 | 23.3 ± 0.04 | 1.395 ± 0.011 | 1.205 ± 0.01 | 1.069 ± 0.0099 | 0.9427 ± 0.0095
x2 = 0.5048 | 27.02 ± 0.05 | 25.85 ± 0.05 | 24.69 ± 0.04 | 23.84 ± 0.04 | 1.241 ± 0.01 | 1.076 ± 0.0099 | 0.962 ± 0.0096 | 0.8525 ± 0.0093
x2 = 0.6254 | 28.21 ± 0.05 | 27.01 ± 0.04 | 25.84 ± 0.04 | 24.94 ± 0.04 | 1.069 ± 0.0098 | 0.939 ± 0.0095 | 0.8498 ± 0.0093 | 0.7611 ± 0.0091
x2 = 0.6638 | 28.68 ± 0.05 | 27.48 ± 0.04 | 26.31 ± 0.04 | 25.4 ± 0.04 | 1.021 ± 0.0097 | 0.9012 ± 0.0094 | 0.8193 ± 0.0092 | 0.7366 ± 0.0091
x2 = 0.7952 | 30.84 ± 0.04 | 29.66 ± 0.04 | 28.51 ± 0.04 | 27.56 ± 0.04 | 0.9068 ± 0.0094 | 0.8182 ± 0.0092 | 0.7558 ± 0.0091 | 0.6895 ± 0.009
x2 = 0.8706 | 32.34 ± 0.04 | 31.19 ± 0.04 | 30.05 ± 0.04 | 29.08 ± 0.04 | 0.8572 ± 0.0093 | 0.797 ± 0.0091 | 0.7501 ± 0.0091 | 0.6882 ± 0.0089
x2 = 0.9363 | 33.8 ± 0.04 | 32.67 ± 0.04 | 31.56 ± 0.04 | 30.58 ± 0.04 | 0.8373 ± 0.0092 | 0.783 ± 0.0091 | 0.7386 ± 0.009 | 0.6836 ± 0.0089
